pIC50: −log10 of the molar value.
The compounds below were run against Reverse transcriptase (Human immunodeficiency virus 2) (assay: Inhibition of purified HIV-2 reverse transcriptase).

SMILES | pIC50
O=C(O)c1cc(NS(=O)(=O)c2ccc(-c3ccc(S(=O)(=O)Nc4cc(C(=O)O)c(O)c(S(=O)(=O)O)c4)cc3)cc2)cc(S(=O)(=O)O)c1O | 3.32
O=C(O)CCCCCCCCC(=O)Nc1cc(S(=O)(=O)O)cc2cc(S(=O)(=O)O)cc(O)c12 | 3.77
Nc1c(S(=O)(=O)O)cc2cc(S(=O)(=O)O)cc(O)c2c1O | 3.34
O=C(CCCCCCCCC(=O)Nc1cc(S(=O)(=O)O)cc2cc(S(=O)(=O)O)cc(O)c12)Nc1cc(S(=O)(=O)O)cc2cc(S(=O)(=O)O)cc(O)c12 | 3.91
